Measurements taken from patent US9782420B2, “Method for treating eye diseases” (Kyoto University, priority 2013, dated 2017).

Key:
[1] = tested on: CCR2 deficient mice; experiment: Experiment 2: Suppression of formation of drusen in young mice; assay type: in vivo
Experimental: Experiment 2: Suppression of Formation of Drusen in Young Mice
The effect of the compound of number 32 (Compound 32) to suppress the formation of the drusen in young mice was tested. CCR2 deficient mice were used. The mice were allowed to freely drink water containing 0.385 mg/ml of Compound 32 from the age of two months. The mice in the control group were allowed to freely drink water not containing Compound 32. At the age of 2, 3.5, 6, and 9 months, the mice were examined by fundus photographs, OCT, and ERG.

[2] = tested on: CCR2 (monocyte chemoattractant protein 1 (MCP-1) receptor) deficient mice; experiment: Experiment 1: Removal of drusen in aged mice; assay type: in vivo
Experimental: Experiment 1: Removal of Drusen in Aged Mice
The effect of the compound of number 32 (Compound 32) to remove previously formed drusen in relatively aged mice was tested. CCR2 (monocyte chemoattractant protein 1 (MCP-1) receptor) deficient mice were used. The mice in the group of Compound 32 (n=30 eyes) were orally administered with 50 mg/kg/day of Compound 32 dissolved in saline five days week from the age of nine months. The mice in the control group (n=48 eyes) were orally administered with the saline. The mice in the both groups were allowed to freely drink water. At the age of 6, 9, 10, 11, 12, 13, 14, and 15 months, the mice were examined by fundus photographs, optical coherence tomography (OCT) (Multiline OCT, Heidelberg Engineering) and electroretinogram (ERG).

SMILES: Cc1cc(F)ccc1-c1ccc(/N=N/c2cc(S(=O)(=O)[O-])c3ccccc3c2N)cn1.[Na+] [Compound 32, 4-amino-3-[6-(4-fluoro-2-methylphenyl)pyridine-3-ylazo]naphthalene-1-sulfonic acid sodium salt]
- a-wave amplitudes in the electroretinogram (FIG. 14) ([1]; mice at the age of 9 months, drinking water 0.385 mg/ml from age of two months, vs control, p=<0.001): function of photoreceptor cells is better in the mice administered with Compound 32 than in the control mice
- b-wave amplitudes in the electroretinogram (FIG. 13) ([1]; mice at the age of 9 months, drinking water 0.385 mg/ml from age of two months, vs control, p=<0.05): retinal function is better in the mice administered with Compound 32 than in the control mice
- number of the drusen found in the fundus photographs (FIG. 12) ([1]; young CCR2 deficient mice, drinking water 0.385 mg/ml from age of two months, age 2, 3.5, 6 and 9 months, vs control, p=<0.05): the drusen were gradually increased in the control group but not in the mice administered with Compound 32
- drusen in fundus photographs (FIGS. 9 to 11) ([1]; young CCR2 deficient mice, drinking water containing 0.385 mg/ml from age of two months, photographs at age 3.5, 6, and 9 months): the drusen did not increase
- numbers of the drusen found in the fundus photographs (FIG. 5) ([2]; aged CCR2 deficient mice, oral 50 mg/kg/day from age of nine months, age 6 to 15 months, vs saline control): the drusen were gradually increased in the control group but not in the mice administered with Compound 32
- drusen in fundus photographs (FIGS. 2 to 4) ([2]; aged CCR2 deficient mice, oral 50 mg/kg/day in saline five days a week from age of nine months, photographs at age 9 and 15 months): the drusen disappeared in the area bounded by the line
- time-dependent change of the numbers of the drusen in individual mice (FIG. 6) ([2]; mice 1 to 4 administered with Compound 32, oral 50 mg/kg/day from age of nine months): gradually decreased after the administration
- b-wave amplitudes in the electroretinogram (FIG. 7) ([2]; mice at the age of 15 months, oral 50 mg/kg/day from age of nine months, vs control, p=<0.05): retinal function is better in the mice administered with Compound 32 than in the control mice
